From patent US6841519B1, “Isoxazoline derivatives and herbicides containing the same as the active ingredient” (Kumiai Chemical Industry Co., Ltd., priority 1999, dated 2005)

What was measured:
Assay type in all cases: in vivo
[1] = system: Echinochloa oryzicola Vasing. (Eo); assay: Test for herbicidal effect by paddy field soil treatment (Test Example 1); conditions: application amount (active ingredient) 100 g/10 a, examined at the 21st day from the treatment, index per Table 40
Procedure: <Test Example 1> Test For Herbicidal Effect By Paddy Field Soil Treatment A paddy field soil was filled in a plastic pot of 100 cm^2 and subjected to puddling. Then, seeds of Echinochloa oryzicola Vasing. (Eo) were sowed and water was filled in a depth of 3 cm. Next day, wettable powders produced in accordance with the Formulation 1 were diluted with water and dropped on the water surface. The application amount of each wettable powder was 100 g per 10 ares in terms of the active ingredient. Then, breeding was made in a greenhouse, and the herbicidal effect of each wettable powder was examined at the 21st day from the treatment in accordance with the standard shown in Table 40. [table]

[2] = system: Echinochloa crus-galli (L.) Beauv. var. crusgall (Ec); assay: Test for herbicidal effect by upland field soil treatment (Test Example 2), Ec
Procedure: (§1) [table] <Test Example 2> Test For Herbicidal Effect By Upland Field Soil Treatment An upland field soil was filed in a plastic pot of 80 cm^2. Seeds of Echinochloa crus-galli (L.) Beauv. var. crusgall (Ec) and Setaria viridis (L.) Beauv. (Se) were sowed, followed by covering with the same soil. Wettable powders produced in accordance with the Formulation 1 were diluted with water and sprayed uniformly: on the soil surface using a small sprayer, in an amount of 100 liters per 10 ares so that the amount of each active ingredient became 100 g per 10 ares. Then, breeding was made in a greenhouse, and the herbicidal effect of each wettable powder was examined at the 21st day from the treatment in accordance with the standard shown in Table 40.

[3] = system: Setaria viridis (L.) Beauv. (Se); assay: Test for herbicidal effect by upland field soil treatment (Test Example 2), Se
Procedure: as §1

[4] = system: Echinochloa crus-galli (L.) Beauv. var. crusgalli (Ec); assay: Test for herbicidal effect by upland foliage treatment (Test Example 3); conditions: 100 g/10 a active ingredient, examined at 14th day
Procedure: Test For Herbicidal Effect By Upland Foliage Treatment
An upland field soil was filed in a plastic pot of 80 cm^2. Seeds of Echinochloa crus-galli (L.) Beauv. var. crusgalli (Ec) were sowed. Breeding was made in a greenhouse for 2 weeks. Wettable powders produced in accordance with the Formulation 1 were diluted with water and sprayed on the whole foliage of plants from above the plants using a small sprayer in an amount of 100 liters per 10 ares so that the amount of each active ingredient became 100 g per 10 ares. Then, breeding was made in the greenhouse, and the herbicidal effect of each wettable powder was examined at the 14th day from the treatment in accordance with the standard shown in Table 40.

[5] = application amount (active ingredient) 100 g/10 a, examined at the 21st day from the treatment, index per Table 40
[6] = 100 g/10 a active ingredient, examined at 21st day

SMILES	Herbicidal effect to Eo [1]	Herbicidal effect to Ec [2, 5]	Herbicidal effect to Se [3, 5]	Herbicidal effect to Ec [4]	Herbicidal effect to Ec [2, 6]	Herbicidal effect to Se [3, 6]
CC1(C)CC(S(=O)(=O)Cc2cccc(Cl)c2Cl)=NO1 [Compound 1-487]	5 (A herbicidal effect or phytotoxicity of 90% or more)	5 (A herbicidal effect or phytotoxicity of 90% or more)	5 (A herbicidal effect or phytotoxicity of 90% or more)	4 (A herbicidal effect or phytotoxicity of 70% to less than 90%)	–	–
CCCCOc1ccccc1CS(=O)(=O)C1=NOC(C)(C)C1 [Compound 1-568]	5 (A herbicidal effect or phytotoxicity of 90% or more)	–	–	5 (A herbicidal effect or phytotoxicity of 90% or more)	5 (A herbicidal effect or phytotoxicity of 90% or more)	5 (A herbicidal effect or phytotoxicity of 90% or more)
CC1(C)CC(S(=O)(=O)Cc2c(Cl)cccc2OC(F)F)=NO1 [Compound 1-561]	5 (A herbicidal effect or phytotoxicity of 90% or more)	–	–	4 (A herbicidal effect or phytotoxicity of 70% to less than 90%)	5 (A herbicidal effect or phytotoxicity of 90% or more)	5 (A herbicidal effect or phytotoxicity of 90% or more)
C#CCOc1cccc(F)c1CS(=O)(=O)C1=NOC(C)(C)C1 [Compound 1-576]	5 (A herbicidal effect or phytotoxicity of 90% or more)	–	–	5 (A herbicidal effect or phytotoxicity of 90% or more)	5 (A herbicidal effect or phytotoxicity of 90% or more)	5 (A herbicidal effect or phytotoxicity of 90% or more)
C#CCOc1ccccc1CS(=O)(=O)C1=NOC(C)(C)C1 [Compound 1-559]	5 (A herbicidal effect or phytotoxicity of 90% or more)	–	–	5 (A herbicidal effect or phytotoxicity of 90% or more)	5 (A herbicidal effect or phytotoxicity of 90% or more)	5 (A herbicidal effect or phytotoxicity of 90% or more)
Cc1ccc(F)c(CS(=O)(=O)C2=NOC(C)(C)C2)c1F [Compound 1-550]	5 (A herbicidal effect or phytotoxicity of 90% or more)	–	–	5 (A herbicidal effect or phytotoxicity of 90% or more)	5 (A herbicidal effect or phytotoxicity of 90% or more)	5 (A herbicidal effect or phytotoxicity of 90% or more)
CCC1(C)CC([S+]([O-])Cc2c(F)cccc2F)=NO1 (stereo not drawn) [Compound 1-199, 5-ethyl-3-(2,6-difluorobenzylsulfinyl)-5-methyl-2-isoxazoline]	5 (A herbicidal effect or phytotoxicity of 90% or more)	5 (A herbicidal effect or phytotoxicity of 90% or more)	5 (A herbicidal effect or phytotoxicity of 90% or more)	4 (A herbicidal effect or phytotoxicity of 70% to less than 90%)	–	–
CC1(C)CC(S(=O)(=O)Cc2cc(C(F)(F)F)cc(C(F)(F)F)c2)=NO1 [Compound 1-543]	5 (A herbicidal effect or phytotoxicity of 90% or more)	–	–	4 (A herbicidal effect or phytotoxicity of 70% to less than 90%)	5 (A herbicidal effect or phytotoxicity of 90% or more)	5 (A herbicidal effect or phytotoxicity of 90% or more)
CC1C(S(=O)(=O)Cc2c(F)cccc2F)=NOC1(C)C (stereo not drawn) [Compound 1-495]	5 (A herbicidal effect or phytotoxicity of 90% or more)	5 (A herbicidal effect or phytotoxicity of 90% or more)	5 (A herbicidal effect or phytotoxicity of 90% or more)	5 (A herbicidal effect or phytotoxicity of 90% or more)	–	–
CC1(C)CC(S(=O)(=O)Cc2ccc(Cl)cc2)=NO1 [Compound 1-4]	5 (A herbicidal effect or phytotoxicity of 90% or more)	5 (A herbicidal effect or phytotoxicity of 90% or more)	5 (A herbicidal effect or phytotoxicity of 90% or more)	4 (A herbicidal effect or phytotoxicity of 70% to less than 90%)	–	–
CCc1cccc(C)c1CS(=O)(=O)C1=NOC(C)(C)C1 [Compound 1-525]	5 (A herbicidal effect or phytotoxicity of 90% or more)	–	–	5 (A herbicidal effect or phytotoxicity of 90% or more)	5 (A herbicidal effect or phytotoxicity of 90% or more)	5 (A herbicidal effect or phytotoxicity of 90% or more)
CC1(C)CC(S(=O)(=O)Cc2ccccc2[N+](=O)[O-])=NO1 [Compound 1-142]	5 (A herbicidal effect or phytotoxicity of 90% or more)	5 (A herbicidal effect or phytotoxicity of 90% or more)	5 (A herbicidal effect or phytotoxicity of 90% or more)	4 (A herbicidal effect or phytotoxicity of 70% to less than 90%)	–	–
CC1(C)CC(S(=O)(=O)Cc2ccc(Br)cc2F)=NO1 [Compound 1-516]	5 (A herbicidal effect or phytotoxicity of 90% or more)	–	–	5 (A herbicidal effect or phytotoxicity of 90% or more)	5 (A herbicidal effect or phytotoxicity of 90% or more)	5 (A herbicidal effect or phytotoxicity of 90% or more)
CC1(C)CC(S(=O)(=O)Cc2c(F)cccc2I)=NO1 [Compound 1-548]	5 (A herbicidal effect or phytotoxicity of 90% or more)	–	–	5 (A herbicidal effect or phytotoxicity of 90% or more)	5 (A herbicidal effect or phytotoxicity of 90% or more)	5 (A herbicidal effect or phytotoxicity of 90% or more)
Cc1ccc(CS(=O)(=O)C2=NOC(C)(C)C2)cc1 [Compound 1-7]	5 (A herbicidal effect or phytotoxicity of 90% or more)	5 (A herbicidal effect or phytotoxicity of 90% or more)	5 (A herbicidal effect or phytotoxicity of 90% or more)	4 (A herbicidal effect or phytotoxicity of 70% to less than 90%)	–	–
CC1(C2CC2)CC(S(=O)(=O)Cc2ccccc2OC(F)F)=NO1 (stereo not drawn) [Compound 1-562]	5 (A herbicidal effect or phytotoxicity of 90% or more)	–	–	4 (A herbicidal effect or phytotoxicity of 70% to less than 90%)	5 (A herbicidal effect or phytotoxicity of 90% or more)	5 (A herbicidal effect or phytotoxicity of 90% or more)
CC1(C)CC(S(=O)(=O)Cc2ccc(F)c(C(F)(F)F)c2)=NO1 [Compound 1-541]	5 (A herbicidal effect or phytotoxicity of 90% or more)	–	–	4 (A herbicidal effect or phytotoxicity of 70% to less than 90%)	5 (A herbicidal effect or phytotoxicity of 90% or more)	5 (A herbicidal effect or phytotoxicity of 90% or more)
Cc1ccc([N+](=O)[O-])c(CS(=O)(=O)C2=NOC(C)(C)C2)c1 [Compound 1-540]	5 (A herbicidal effect or phytotoxicity of 90% or more)	–	–	5 (A herbicidal effect or phytotoxicity of 90% or more)	5 (A herbicidal effect or phytotoxicity of 90% or more)	5 (A herbicidal effect or phytotoxicity of 90% or more)
CCOC(=O)c1ccccc1CS(=O)(=O)C1=NOC(C)(C)C1 [Compound 1-593]	5 (A herbicidal effect or phytotoxicity of 90% or more)	–	–	4 (A herbicidal effect or phytotoxicity of 70% to less than 90%)	5 (A herbicidal effect or phytotoxicity of 90% or more)	4 (A herbicidal effect or phytotoxicity of 70% to less than 90%)
CC1(C)CC(S(=O)(=O)Cc2ccc(Cl)c(Cl)c2)=NO1 [Compound 1-491]	5 (A herbicidal effect or phytotoxicity of 90% or more)	5 (A herbicidal effect or phytotoxicity of 90% or more)	5 (A herbicidal effect or phytotoxicity of 90% or more)	4 (A herbicidal effect or phytotoxicity of 70% to less than 90%)	–	–
C=CCOc1cccc(C)c1CS(=O)(=O)C1=NOC(C)(C)C1 [Compound 1-606]	5 (A herbicidal effect or phytotoxicity of 90% or more)	–	–	4 (A herbicidal effect or phytotoxicity of 70% to less than 90%)	5 (A herbicidal effect or phytotoxicity of 90% or more)	5 (A herbicidal effect or phytotoxicity of 90% or more)
